Reference: patent US6685932B1, “Coiled-coil dimer derived antagonists of 4-helix bundle cytokines, design and uses thereof” (Europaisches Laboratorium Molekularbiologie, priority 1997, dated 2004)
Read-outs that look alike come from different tables or passages of the source. Positions of bridges follow the written chain, without caps; N, C: chain ends. Chains are numbered I, II in the order given.

What was measured:
[1] = target: T1, IL-4Rα (extracellular domain, IL4BP) (Homo sapiens, UniProt P24394, Q231C); assay: biosensor-based binding experiments (BIA2000 system) on immobilised IL-4 binding protein
T1 sequence (P24394 26-232 Q231C): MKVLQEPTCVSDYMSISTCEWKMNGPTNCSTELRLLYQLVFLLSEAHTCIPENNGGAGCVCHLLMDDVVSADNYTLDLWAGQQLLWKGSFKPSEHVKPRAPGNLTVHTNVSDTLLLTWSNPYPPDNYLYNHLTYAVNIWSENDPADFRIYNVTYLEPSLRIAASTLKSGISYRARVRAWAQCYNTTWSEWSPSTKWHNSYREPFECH
Excerpt: All the peptides were synthesized by solid phase methods, aminated on the C-terminus and acetylated on the N-terminus. The activity of the peptides was investigated by biosensor-based binding experiments using the BIA2000 system (Pharmacia Biosensor), at room temperature. […] An extensive study of the role of disulfide bridges in the stability of coiled-coil structures and proteins in general is available in the literature (86-88).

[2] = temperature-induced denaturation followed by Circular Dichroism; assay type: physicochemical; conditions: for stability / midpoint transition temperature (Tm), in words: CD at 222 nm
Excerpt: Upon fitting the experimental data, the midpoint transition temperature (Tm) can be obtained.

Substance: Ac-RMKQLEKKVERLLKRNYRLEWEVIRLKKLVG-NH2 [MAR-IL-4]
- Kd [1]: 26 µM
- stability / midpoint transition temperature (Tm), in words [2]: cooperative temperature induced transition characteristic of a folded protein
- temperature at which the peptide starts losing its structure ([2]; low peptide concentrations used to measure binding): 25 °C

Substance: I: Ac-RMKQLEKKVERCLKRLYRNEWEVIRLKKLVG-NH2 / II: Ac-RMKQLEKKVERCLKRLYRNEWEVIRLKKLVG-NH2 (disulfide I:12-II:12) [Model 12CNMAR-IL4]
- binding affinity relative to parent peptide ([1]; relative to peptide bearing cysteine at position 12): binding affinity is not affected
- stability / midpoint transition temperature (Tm), in words [2]: significant drop in the stability

Substance: I: Ac-RMKQLEKKVERCLKRNYRLEWEVIRLKKLVG-NH2 / II: Ac-RMKQLEKKVERCLKRNYRLEWEVIRLKKLVG-NH2 (disulfide I:12-II:12) [Model 12CMAR-IL4]
- increase in the binding affinity to IL-4Rα ([1]; relative to MAR-IL4): 5 fold

Substance: RMKQLEDKVEELLSKNYRLENRVARLEKLVG [Model 1]
- Kd ([1]; room temperature (25° C.), immobilised biotinylated IL4BP): 105597
